Test results: patent US20260376283A1, “A METHOD IMPLEMENTING MORPHOLOGICAL CHANGES OF EXTRACELLULAR ORGANELLE VESICLES SO AS TO EXAMINE THE TRANSPORTING ACTIVITY OF MEMBRANE TRANSPORT PROTEINS AND OTHER RELATED METHODS” (PARIS SCIENCES ET LETTRES, priority 2023, published 2026)
“Also recorded” adds a separate entry of the source. Where two headings read alike, the source gives them in different places.

Assays:
[1] = system: giant extracellular organelles vesicles coming from autophagosomes; assay: Giant organelle formation after pre-treatment of cells (autophagosomes); assay type: cell-based; conditions: added before swelling and extraction
Excerpt: (§1) According to a particular embodiment of the first process, prior to the generation of giant extracellular organelle vesicles, cells may be treated with molecules to prevent protein degradation, modulate biochemical reactions on organelles, etc., so that giant extracellular organelle vesicles can bear specific biochemical properties. The metabolic conditions and the architecture of cells and its organelles can thus be further modified before step v), by chemicals and/or by modifying the expression level of proteins impacting the architecture of cells and/or their organelles and/or the metabolic conditions. […] These manipulations enable controlling the size of the recovered giant extracellular organelle vesicles and their contact: tuning the surface-to-volume ratio, prior to the osmotic swelling, impacting the future recovered giant organelle size, with adapted osmotic swelling. […]

[2] = system: ion channel TMEM175 localized on lysosomes or endolysosomes vesicles; assay: K+ ion channel TMEM175 transporting activity by endolysosome vesicle morphological change (Example 8); assay type: biochemical; conditions: role: substrate, KCl 100 mM inside, 1 mM outside with 200 mM sucrose
Protocol: Before starting acquisition, extracellular endolysosome vesicles are charged with K^+ ions thanks to a bath sonicator and an extracellular solution (210 mOsm/L) containing 100 mM of KCl and 10 mM of Hepes, pH 7.2. Then, extracellular endolysosome vesicles are seeded on a glass plate for observation. Before starting acquisition, extravesicular aqueous solution is removed to be changed when starting acquisition.
Once the acquisition is started, the extracellular organelle vesicle, held by the micropipette is passed through an extra-vesicular aqueous solution (200 mOsm/L) containing 1 mM of KCl and 200 mM of sucrose. Contacting very small amount of potassium ions with said extracellular organelle vesicle generates a concentration gradient of K^+ between the inside and the outside of the vesicles. […] This innovative process allows to examine the transporting activity of the ion channel TMEM175 localized on lysosomes or endolysosomes vesicles in absence and/or in presence of an antagonist (4-AP) and/or agonist (DCPIB).

[3] = system: ion channel TMEM175 localized on lysosomes or endolysosomes vesicles; conditions: cited from earlier work
[4] = system: ion pump SERCA localized on Endoplasmic Reticulum vesicles; assay: Ca2+ pump transporting activity by morphological change (deflation/re-swelling) of ER extracellular organelle vesicles (Example 1); assay type: biochemical; conditions: role: substrate
Protocol: An initial HKM buffer was prepared with 50 mM Hepes (known as 2-[4-(2-hydroxyethyl)piperazin-1-yl]ethanesulfonic acid), 120 mM potassium acetate, and 1 mM MgCl2 (in Milli-Q water) at pH 7.4. Said initial HKM buffer has an osmolarity of 280±15 mOsm/L.
Then, a membrane tension is applied on cells so as to produce extracellular organelle vesicles without lysing them. At that step, the extracellular organelle vesicles are released (or produced) thanks to the lysis and the removal of the plasma membrane. The membrane tension is carried out by micro-manipulation of the cells under confocal microscope thanks to a micropipette aspiration technique. Micropipette radius is around 1 μm. Thanks to a slight aspiration, a bilayer tongue of the plasma membrane was sucked into the micropipette. The aspiration is then increased at an approximate rate of 10 mbar/min, causing a proportional increase in the bilayer surface tension. At a certain applied tension (e.g. surface tension<0.75 mN/m), the plasma membrane ruptured thanks to a pore opening in the plasma membrane and the extracellular organelle vesicles are released (or extracted).
After extraction, one or more extracellular organelle vesicles are isolated using a micropipette. The micropipettes are used to hold a vesicle during the following methods of the present invention. Before the addition of molecules (ions, sugars or drug molecules), an acquisition is launched to observe the initial size of the vesicle.
Once the acquisition is started, the extracellular organelle vesicle, held by the micropipette is passed through an aqueous solution containing CaCl2 (60 mOsm/L) and ATP (100 μM). Contacting calcium ions with said extracellular organelle vesicle increases the osmolarity of the extravesicular aqueous medium. […] This innovative process allows to examine the transporting activity of the ion pump SERCA localized on Endoplasmic Reticulum vesicles.
FIG. 1 A) represents an extracellular organelle vesicle of endoplasmic reticulum (ER) which is maintained thanks to a micropipette into a HKM diluted buffer (20 mOsm/L) as an extravesicular aqueous medium. This extracellular organelle vesicle has been isolated thanks to an ER resident protein (KDEL), over-expressed by COS7 cells, before organelle vesicles extraction.
At t=0s, CaCl2 (60 mOsm/L) and ATP (100 μM) were added. At t=20s, the ER extracellular organelle vesicle is deflated: it reached its minimum volume (Vi1) and its associated maximum fluorescence signal (Fl1).
Once the acquisition is started, the ER extracellular organelle vesicle, held by the micropipette is passed through an aqueous solution containing sucrose (60 mOsm). […] Sucrose can thus be used as a control or reference in the method of the present invention.

[5] = system: giant extracellular organelles vesicles from endosome, lysosome, autolysosome and multivesicular body; assay: Giant organelle formation after pre-treatment of cells (endosome, lysosome, autolysosome, multivesicular body); assay type: cell-based; conditions: added between 12 to 24 hours before swelling
Excerpt: as §1

[6] = system: giant organelles from the ER; assay: Giant organelle formation after pre-treatment of cells (ER); assay type: cell-based; conditions: pre-treatment between 1 and 90 min before swelling
Excerpt: as §1

[7] = system: SERCA pump; assay: Screening of candidate compounds modulating SERCA activity by ER vesicle re-swelling (Example 4); assay type: biochemical; conditions: role: inhibitor; for re-swelling process in presence of inhibitor: thapsigargin 10 μM in DMSO, 10 min, CaCl2 60 mOsm/L, ATP 1 mM / 100 μM, compared to vesicle not incubated
Protocol: Once the ER extracellular organelle vesicles are extracted, thapsigargin (10 μM) in DMSO, is added to the medium. […] After 10 minutes of incubation with thapsigargin, and once the acquisition is started, the extracellular organelle vesicle, held by the micropipette is passed through an aqueous solution containing CaCl2 (60 mOsm/L) and ATP (1 mM).
FIG. 6 A) represents an ER extracellular organelle vesicle maintained thanks to a micropipette into a HKM diluted buffer (20 mOsm/L). This extracellular organelle vesicle has been isolated thanks to an ER resident protein, over-expressed by COS7 cells, before organelle vesicles extraction. This extracellular organelle vesicle was incubated with thapsigargin at 10 μM during 10 min.
At t=0s, CaCl2 (60 mOsm/L) and ATP (100 μM) were added. Dotted line circles all correspond to the size of the extracellular organelle vesicle before the beginning of the process.

[8] = system: SERCA pump; conditions: role: inhibitor; cited from earlier work

## CO/C1=C\C(C)=C\[C@@H](C)[C@@H](O)[C@@H](C)C/C(C)=C/C=C/[C@H](OC)[C@@H]([C@@H](C)[C@@H](O)[C@H](C)C2(O)C[C@@H](O)[C@H](C)[C@@H](C(C)C)O2)OC1=O (stereo partly shown) [bafylomicin]
[1]
  effect on giant extracellular organelle vesicles from autophagosomes: allows to obtain more giant extracellular organelles vesicles coming from autophagosomes

## [Cl-].[K+] [KCl]
[2]
  deflation of endolysosome vesicle: the vesicle deflates in a few seconds
[2]; following minutes
  re-swelling process of endolysosome vesicle: a re-swelling process is not observed

## Nc1ccncc1 [4-AP]
[3]; role: inhibitor
  mode of action on TMEM175: antagonist

## CCCCC1(C2CCCC2)Cc2cc(OCCCC(=O)O)c(Cl)c(Cl)c2C1=O (stereo not shown) [DCPIB]
[3]; role: activator
  mode of action on TMEM175: agonist

## OC[C@H]1O[C@@](CO)(O[C@H]2O[C@H](CO)[C@@H](O)[C@H](O)[C@H]2O)[C@@H](O)[C@@H]1O [sucrose]
[4]; 60 mOsm/L, following minutes, CaCl2 with ATP (100 μM), sucrose as control
  re-swelling process of vesicle: no re-swelling is observed; also recorded: no re-swelling process is visible
[4]; CaCl2 60 mOsm/L with ATP (100 μM), or sucrose 60 mOsm without ATP stated, vesicle internal 20 mOsm/L, COS7 ER vesicle
  deflation of vesicle on contacting: deflates in a few seconds
[4]; sucrose 60 mOsm, FIG. 2
  transport inside the ER extracellular organelle vesicle: not transported inside the ER extracellular organelle vesicle

## CO[C@H]1C[C@@H]2CC[C@@H](C)[C@@](O)(O2)C(=O)C(=O)N2CCCC[C@H]2C(=O)O[C@H]([C@H](C)C[C@@H]2CC[C@@H](O)[C@H](OC)C2)CC(=O)[C@H](C)/C=C(\C)[C@@H](O)[C@@H](OC)C(=O)[C@H](C)C[C@H](C)/C=C/C=C/C=C/1C [rapamycin]
[5]
  effect on giant extracellular organelle vesicle formation: allows to form bigger giant extracellular organelles vesicles

## C/C1=C/C(=O)O[C@@H]2C[C@@H](CC[C@H](C)/C=C\C=C\CC1)O[C@@](O)([C@@H]1CSC(=O)N1)C2 [Latrunculin A]
[6]
  effect on giant organelle formation from the ER: allows the formation of bigger giant organelles from the ER

## COC(=O)Nc1nc2ccc(C(=O)c3cccs3)cc2[nH]1 [nocodazole]
[6]
  effect on giant organelle formation from the ER: allows the formation of bigger giant organelles from the ER

## C/C=C(/C)C(=O)O[C@H]1C(C)=C2[C@H]([C@@H]1OC(=O)CCCCCCC)[C@@](C)(OC(C)=O)C[C@H](OC(=O)CCC)[C@@]1(O)[C@H]2OC(=O)[C@@]1(C)O [thapsigargin]
[7]; reference ratio obtained without thapsigargin
  Vf/Vi1 and Vf/Vi versus reference ratio: Vf/Vi1<Vf,ref/Vi1,ref, and Vf/Vi<Vf,ref/Vi,ref
[7]
  re-swelling process in presence of inhibitor: the reswelling process is decreased or not present
[7]; listed as thaspigargin
  re-swelling process in presence of inhibitor: the re-swelling process is almost off
[7]; thapsigargin 10 μM, FIGS. 1 and 6
  effect on the transporting activity of SERCA with respect to Ca^2+: inhibitory effect
[8]
  known activity on the SERCA pump: known inhibitor of the SERCA pump
